Publication PMC3927474, “Whole body synthesis rates of DHA from α-linolenic acid are greater than brain DHA accretion and uptake rates in adult rats” (Journal of Lipid Research, 2014)

Test: Balance study: n-3 and n-6 PUFA balance (intake, excretion, accretion, metabolic consumption)
Format: in vivo, rat
Conditions: 24 h feces at 8 weeks postweaning, percentage of intake
Description: All procedures were performed in accordance with the policies set out by the Canadian Council on Animal Care and were approved by the Animal Ethics Committee at the University of Toronto. Three Long Evans dams each with 18-day-old male Long Evans pups were ordered from Charles River Laboratories (St. Constant, QC, Canada). Pups were nonlittermates and each dam was housed with pups. Upon arrival, dams were allocated to one of the three diets (described below). When the pups were 21 days old, two pups from each dam were euthanized by high-energy head-focused microwave fixation (4.5 kW for 0.9 s). Brains were removed immediately and stored at -80°C until lipid analysis. Bodies were also stored at -80°C immediately after euthanization until analysis. The brains and bodies of these pups were used to determine the PUFA content of the rats at weaning (i.e., baseline PUFA content). […] For the balance study, the rats were weighed, food intake was determined, and uneaten food was replaced with fresh food on a weekly basis. Rats were euthanized by CO2 asphyxiation. Brains were removed and dissected sagittally. Carcasses and one half brain per rat were stored immediately at -80°C (to be later analyzed for lipid content). […] For the steady-state infusion study and the brain DHA uptake study, a jugular vein catheter was surgically implanted into the rats. […] Carcasses were thawed overnight in a refrigerator at 3°C, cut into pieces, and passed through a #12 hand grinder. After the whole body had passed through the grinder once, the homogenate was mixed together by hand and passed at least one more time through the grinder until the mixture was sufficiently homogeneous. Due to the small size of the pups all of the 21-day-old pup bodies were passed through the grinder together. […] New chloroform was added to the remaining aqueous phase, the mixture was once again centrifuged, and the chloroform layer was extracted and added to the previously extracted chloroform layer. […] One hemisphere was thawed briefly and dissected over ice to separate the brainstem, cerebellum, cortex, hippocampus, striatum, and the rest of the brain. […] The homogenizer was then washed with methanol, which was then transferred to the test tube containing the homogenized brain and KCl. […] The chloroform layer was extracted and new chloroform was added to the aqueous phase. […] At 8 weeks postweaning all the feces produced by a rat in 24 h were collected. […] Mean PUFA excretion (percentage of intake) was determined and applied to all animals to determine PUFA excretion. […] Nu-Check Prep, Elysian, MN) was added to the TLE. […] Samples were injected in […] mode. The injector and detector ports were set at 250°C. […] The carrier gas was helium, set to a constant flow rate of 0.7 ml/min. Peaks were identified by retention times of authentic FAME standards (Nu-Chek Prep). […] The concentrations were expressed on a per gram basis then multiplied by total weight of the tissue to determine the total amount of each fatty acid in the tissue.

Compound: CCCCC/C=C\C/C=C\CCCCCCCC(=O)O [LNA, linoleic acid]
- Dietary PUFA excreted in the feces: 0.5 ± 0.05%
